Drawing on patent publication US10981932B2, “Macrocyclic indole derivatives” (Bayer Aktiengesellschaft, priority 2016, dated 2021), this text covers IC50 and EC50 for 10 compounds.

For series [1], the system named is SUDHL10. Kind of series: Anti-proliferative effect (CellTiter-Glo, 72 h), SUDHL10. It is filed as cell-based. The note with it: SUDHL10 cells, antiproliferation, 72 h incubation, median, read-out: Antiproli SUDHL10 [M] (median). The procedure, abridged:
(§1)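 CTG luminescence read-out after 72 h compound exposure, 37 °C, humidified. Time-zero reference plate read at plating.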

Series [2] relates to SUDHL5. Kind of series: Anti-proliferative effect (CellTiter-Glo, 72 h), SUDHL5. It is filed as cell-based. The note with it: SUDHL5 cells, antiproliferation, 72 h incubation, median, read-out: Antiproli SUDHL5 [M] (median). The procedure, abridged: as §1
(In general: ATP-based viability assays read luminescence as a measure of living cells.)

Series [3] has as its target MCL-1 (Homo sapiens, UniProt Q07820). The series is described as follows: Protein-protein interaction assay MCL-1/Noxa BH3 peptide (MCL-1 assay), TR-FRET. Type of series: binding. The note with it: MBP-MCL-1 / Noxa BH3-derived peptide, median. The procedure, abridged: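 Displacement of the biotinylated Noxa BH3 peptide from MBP-tagged human MCL-1 (1 nM) is detected by time-resolved FRET. Compounds are tested in duplicate across eleven concentrations up to 20 μM, incubated 1 h at 22 °C and overnight at 4 °C, and IC50 is fitted with a four-parameter equation.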
On the technique in general: TR-FRET usually uses a lanthanide donor and a delayed reading to cut background.

In series [4] the test system is SUDHL5. Kind of series: Induction of cytotoxicity (CellTiter-Glo, 5 h), SUDHL5.
In series [5] the test system is A2780. The series is described as follows: Anti-proliferative effect (CellTiter-Glo, 72 h), A2780. The note with it: A2780 cells, median, read-out: IC50 antiproliferation assay A2780 [M] (median). Type of series: cell-based. The procedure, abridged:
as §1

Series [6] concerns SUDHL10. The series is described as follows: Induction of cytotoxicity (CellTiter-Glo, 5 h), SUDHL10.
Method: Therefore, cytotoxicity assays were run in parallel in SUDHL5 and SUDHL10 cells.
The different cell lines were plated in culture medium (RPMI 1640 [GIBCO #22400-089]supplemented with 10% Fetal Bovine Serum) at a density of 3.300 cells in 30 μl/well in a sterile, solid black, flat bottom, polystyrene, TC-treated 384-well microplate (Corning #3571) using Multidrop Combi Reagent Dispenser. As a control, medium without cells was also added to the plate. Cells were incubated in a humidified incubator at 37° C. overnight. On the next day, the cells were treated with compounds (stock solution, 10 mM in DMSO) using the HP D300 Digital Dispenser in a concentration range of 3.3×10e-5 M (33 μM) to 5×10e-9 M (5 nM) in a single-dot curve with at least 16 dilutions and a DMSO concentration of 0.33%. Rim wells were excluded. The cells were incubated for 5 h hours in a humidified incubator at 37° C. After this incubation, 30 μl of CellTiter-Glo@ Luminescent Cell Viability reagent (Promega, G7573) was added to each well using the Multidrop Combi Reagent Dispenser, followed by 15 min incubation on a shaker at room temperature. Finally, luminescence was read at 0.1 ms, with a gain of 3000 using the PHERAstar FS microplate reader (BMG Labtech).
The Bella DRC Master Sheet was used to calculate IC50s, with fixed CI=0 and C0=1.
The subject of series [7] is SUDHL10. The series is described as follows: Induction of caspase-3/7 activity (Caspase-Glo 3/7), SUDHL10. Type of series: cell-based. The following applies: caspase-3/7 induction, SUDHL10 cells, 3 h treatment, median. The procedure, abridged:
(§2)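 Caspase-Glo 3/7 luminescence, 3 h compound exposure, 37 °C, humidified. Minus medium-only blank. EC50 fit: C0=1, plateau = reference max induction.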

Series [8] relates to SUDHL5. Kind of series: Induction of caspase-3/7 activity (Caspase-Glo 3/7), SUDHL5. Type of series: cell-based. The following applies: caspase-3/7 induction, SUDHL5 cells, 3 h treatment, median. The procedure, abridged: as §2
Setting [9] is: read-out: Cytotox SUDHL5 [M] (median), SUDHL5 cells, cytotoxicity induction, CellTiter-Glo, 5 h incubation, median.
The mark [10] stands for this setting: Homo sapiens, SU-DHL10, 5 h, read-out: Cytotox SUDHL10 [M] (median), SUDHL10 cells, cytotoxicity induction, CellTiter-Glo, 5 h incubation, median.
Where [11] appears, read: Homo sapiens, SU-DHL-5, 5 h, read-out: Cytotox SUDHL5 [M] (median), SUDHL5 cells, cytotoxicity induction, CellTiter-Glo, 5 h incubation, median.
Setting [12] is: read-out: Cytotox SUDHL10 [M] (median), SUDHL10 cells, cytotoxicity induction, CellTiter-Glo, 5 h incubation, median.

Structures can show the parent of a compound that is named as a salt. Where two headings read alike, the source gives them in different places.

MCL-1, sequence (Q07820 whole entry): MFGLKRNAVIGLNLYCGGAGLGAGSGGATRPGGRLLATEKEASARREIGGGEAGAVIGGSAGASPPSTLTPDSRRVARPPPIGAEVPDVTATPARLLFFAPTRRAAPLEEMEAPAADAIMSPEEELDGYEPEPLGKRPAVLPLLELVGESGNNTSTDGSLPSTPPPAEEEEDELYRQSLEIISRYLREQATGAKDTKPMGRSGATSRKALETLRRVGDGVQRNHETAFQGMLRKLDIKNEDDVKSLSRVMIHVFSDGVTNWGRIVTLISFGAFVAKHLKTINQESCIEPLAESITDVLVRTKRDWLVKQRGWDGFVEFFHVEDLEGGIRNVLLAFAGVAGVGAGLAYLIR

For orientation: EC50 means the concentration that produces a half-maximal response. Read a low EC50 as greater potency. As for `Cc1cc(OCCCc2c(C(=O)O)n3c4c(cccc24)-c2c(C)nn(C)c2COCCCC3)cc(C)c1Cl` (single isomer, unassigned; enantiomer 1) [Example 010, 7-[3-(4-chloro-3,5-dimethylphenoxy)propyl]-1,3-dimethyl-1,10,11,12,13,15-hexahydropyrazolo[4′,3′:9,10][1,6]oxazacycloundecino[8,7,6-hi]indole-8-carboxylic acid-N-ethylethanamine Salt (Enantiomer 1)], the IC50 in series [1] turned out to be 3.91e-06 M; in series [2] (Homo sapiens, SU-DHL-5, 72 h) it was 1.27e-05 M; in series [3], 0.00496 µM; in series [4] (setting [9]), 7.4e-06 M; in series [5] (Homo sapiens, A2780, 72 h) it was 2.06e-05 M; in series [6] (setting [10]) it was 2.27e-05 M. Also, the EC50 in series [7] (Homo sapiens, SU-DHL10, 3 h) was determined as 18.6 µM; in series [8], 6.62 µM.

`Cc1cc(OCCCc2c(C(=O)O)n3c4c(cccc24)-c2c(C)nn(C)c2COCCC3)cc(C)c1Cl` (single isomer, unassigned; enantiomer 1) [Example 014, 1-[3-(4-chloro-3,5-dimethylphenoxy)propyl]-9,11-dimethyl-5,6,8,9-tetrahydro-4H-pyrazolo[4′,3′:8,9][1,5]oxazecino[7,6,5-hi]indole-2-carboxylic acid-N-ethylethanamine Salt (Enantiomer 1)]: the IC50 in series [1] (Homo sapiens, SU-DHL10, 72 h) was 7.24e-06 M; in series [2] (Homo sapiens, SU-DHL-5, 72 h), 2.23e-05 M; in series [3] it was 0.00995 µM; in series [4] (setting [11]), 2.27e-05 M; in series [5] it was more than 3.3e-05 M; in series [6] (setting [10]), more than 3.3e-05 M. Besides, the EC50 was more than 33 µM in series [7] (Homo sapiens, SU-DHL10, 3 h) and 26.6 µM in series [8] (Homo sapiens, SU-DHL-5, 3 h).

Turning to `Cc1nn(C)c2c1-c1cccc3c(CCCOc4ccc(F)c5ccccc45)c(C(=O)O)n(c13)CCCCOC2` (single isomer, unassigned; enantiomer 1) [Example 022, 7-{3-[(4-fluoronaphthalen-1-yl)oxy]propyl}-1,3-dimethyl-1,10,11,12,13,15-hexahydropyrazolo[4′,3′:9,10][1,6]oxazacycloundecino[8,7,6-hi]indole-8-carboxylic Acid-N-ethylethanamine Salt (Enantiomer 1)], the IC50 in series [1] (Homo sapiens, SU-DHL10, 72 h) was 6.52e-06 M; in series [2] (Homo sapiens, SU-DHL-5, 72 h), 7.53e-06 M; in series [3] it was 0.00163 µM; in series [4] (setting [9]), 4.08e-06 M; in series [5] (Homo sapiens, A2780, 72 h), 2.59e-05 M; in series [6] (setting [12]), 2.02e-05 M. In addition, the EC50 in series [7] came out at 17.6 µM; in series [8] (Homo sapiens, SU-DHL-5, 3 h), 4.19 µM.

For `Cc1ccc2c(CCCOc3cccc4ccccc34)c(C(=O)O)n3c2c1-c1c(C)nn(C)c1COCCC3` (single isomer, unassigned; enantiomer 1) [Example 025, (+)-9,11,12-trimethyl-1-[3-(naphthalen-1-yloxy)propyl]-5,6,8,9-tetrahydro-4H-pyrazolo[4′,3′:8,9][1,5]oxazecino[7,6,5-hi]indole-2-carboxylic acid-N-ethylethanamine Salt (Enantiomer 1)], the IC50 in series [1] (Homo sapiens, SU-DHL10, 72 h) is 4.29e-06 M; in series [2] (Homo sapiens, SU-DHL-5, 72 h), 6.44e-06 M; in series [3], 0.00184 µM; in series [4] (setting [9]), 2.98e-06 M; in series [5], more than 3.3e-05 M; in series [5] (Homo sapiens, A2780, 72 h), 3.04e-05 M. In addition, the IC50 in series [6] (setting [12]) stood at 8.77e-06 M. The EC50 in series [7] (Homo sapiens, SU-DHL10, 3 h) is 11.1 µM; in series [8] it was 3.04 µM.

For `Cc1ccc2c(CCCOc3cccc4ccccc34)c(C(=O)O)n3c2c1-c1c(C)nn(C)c1COCCCC3` (single isomer, unassigned; enantiomer 1) [Example 028, 1,3,4-trimethyl-7-[3-(naphthalen-1-yloxy)propyl]-1,10,11,12,13,15-hexahydropyrazolo[4′,3′:9,10][1,6]oxazacycloundecino[8,7,6-hi]indole-8-carboxylic acid-N-ethylethanamine Salt (Enantiomer 1)], the IC50 in series [1] (Homo sapiens, SU-DHL10, 72 h) is 1.81e-05 M; in series [2] (Homo sapiens, SU-DHL-5, 72 h), 2.97e-05 M; in series [3], 0.234 µM; in series [4] (setting [11]), more than 3.3e-05 M; in series [5] (Homo sapiens, A2780, 72 h), 1.94e-05 M; in series [6] (setting [10]), more than 3.3e-05 M. Besides, the EC50 in series [7] (Homo sapiens, SU-DHL10, 3 h) was more than 33 µM; in series [8] (Homo sapiens, SU-DHL-5, 3 h), more than 33 µM.

Take `Cc1cc2c(OCCCc3c(C(=O)O)n4c5c(cccc35)-c3c(C)nn(C)c3COCCCC4)cccc2cc1F` (single isomer, unassigned; enantiomer 1) [Example 050, 7-{3-[(6-fluoro-7-methylnaphthalen-1-yl)oxy]propyl}-1,3-dimethyl-1,10,11,12,13,15-hexahydropyrazolo[4′,3′:9,10][1,6]oxazacycloundecino[8,7,6-hi]indole-8-carboxylic acid-N-ethylethanamine Salt (Enantiomer 1)]: the IC50 in series [1] (Homo sapiens, SU-DHL10, 72 h) came out at 7.75e-06 M; in series [2] (Homo sapiens, SU-DHL-5, 72 h), 1.41e-05 M; in series [3], 0.00882 µM; in series [4] (setting [9]), 4.45e-06 M; in series [5] (Homo sapiens, A2780, 72 h), 3.01e-05 M; in series [6] (setting [12]), 9.61e-06 M. Further, the EC50 in series [7] (Homo sapiens, SU-DHL10, 3 h) came to 18.8 µM; in series [8], 6.3 µM.

On to `COCc1c2c(nn1C)COCCCCn1c(C(=O)O)c(CCCOc3cccc4ccccc34)c3cccc-2c31` (single isomer, unassigned; enantiomer 1) [Example 100, 3-(methoxymethyl)-2-methyl-7-[3-(naphthalen-1-yloxy)propyl]-2,10,11,12,13,15-hexahydropyrazolo[4′,3′:9,10][1,6]oxazacycloundecino[8,7,6-hi]indole-8-carboxylic acid-N-ethylethanamine Salt (Enantiomer 1)], for which the IC50 in series [1] is 1.71e-05 M; in series [2], 1.61e-05 M; in series [3], 0.0424 µM; in series [4] (setting [9]) it was more than 3.3e-05 M; in series [5] (Homo sapiens, A2780, 72 h), more than 3.3e-05 M; in series [6] (setting [12]) it was more than 3.3e-05 M. In addition, the 50% effective concentration (EC50) in series [7] and in series [8] was more than 33 µM throughout.

As to `COCCn1nc(C2CC2)c2c1COCCCCn1c(C(=O)O)c(CCCOc3cccc4ccccc34)c3cccc-2c31` (single isomer, unassigned; enantiomer 1) [Example 103, 3-cyclopropyl-1-(2-methoxyethyl)-7-[3-(naphthalen-1-yloxy)propyl]-1,10,11,12,13,15-hexahydropyrazolo[4′,3′:9,10][1,6]oxazacycloundecino[8,7,6-hi]indole-8-carboxylic acid-N-ethylethanamine Salt (Enantiomer 1)], the IC50 in series [1] (Homo sapiens, SU-DHL10, 72 h) was 7.52e-06 M; in series [2], 4.28e-06 M; in series [3], 0.00298 µM; in series [4] (setting [9]), 3.55e-06 M; in series [5] it was 2.72e-05 M; in series [5] (Homo sapiens, A2780, 72 h) it was more than 3.3e-05 M. For the same compound, the IC50 in series [6] (setting [12]) stood at 8.83e-06 M. Moreover, the values for the EC50 in series [7] and in series [8] were 8.71 µM and 2.66 µM, respectively.

For `CCc1c2c(nn1C)CN(C)CCCn1c(C(=O)O)c(CCCOc3cccc4ccccc34)c3cccc-2c31` (single isomer, unassigned; enantiomer 1) [Example 142, 11-Ethyl-7,10-dimethyl-1-[3-(1-naphthyloxy)propyl]-4,5,6,7,8,10-hexahydropyrazolo[3′,4′:7,8][1,5]diazecino[9,10,1-hi]indole-2-carboxylic acid-N-ethylethanamine Salt (Enantiomer 1)], the IC50 in series [1] (Homo sapiens, SU-DHL10, 72 h) was 1.89e-05 M; in series [2] (Homo sapiens, SU-DHL-5, 72 h), 8.25e-06 M; in series [3], 0.00523 µM; in series [4] (setting [9]), 6.07e-06 M; in series [5] (Homo sapiens, A2780, 72 h), 2.25e-05 M; in series [6] (setting [12]), 1.34e-05 M. Besides, the EC50 in series [7] turned out to be 12.5 µM; in series [8], 4.73 µM.

For `Cn1nc(CCN2CCOCC2)c2c1COCCCCn1c(C(=O)O)c(CCCOc3cccc4ccccc34)c3cccc-2c31` (single isomer, unassigned; enantiomer 1) [Example 151, 1-methyl-3-[2-(morpholin-4-yl)ethyl]-7-[3-(naphthalen-1-yloxy)propyl]-1,10,11,12,13,15-hexahydropyrazolo[4′,3′:9,10][1,6]oxazacycloundecino[8,7,6-hi]indole-8-carboxylic acid-N-ethylethanamine Salt (Enantiomer 1)], the IC50 in series [1] (Homo sapiens, SU-DHL10, 72 h) was 2.01e-05 M; in series [2], more than 3.3e-06 M; in series [3], 0.0133 µM; in series [4] (setting [11]) it was 1.91e-05 M; in series [5] (Homo sapiens, A2780, 72 h), more than 3.3e-05 M; in series [6] (setting [10]), more than 3.3e-05 M. Also, the concentration giving a half-maximal response (EC50) was more than 33 µM in series [7] (Homo sapiens, SU-DHL10, 3 h) and 27.5 µM in series [8] (Homo sapiens, SU-DHL-5, 3 h).
